Experimental data published in PubChem BioAssay AID330 (DTP/NCI, 2004).
Where “and” joins values, the source holds several entries; their conditions need not be identical. Equal entries are not always repeated. Inconclusive results and toxic doses are left out. The calls were made as follows: active = survival T/C of 150% or more; inactive = T/C below 125% in these data.

Tested on: P388 leukemia ip, CD2F1 mice, survival T/C
Test: NCI In Vivo Anticancer Drug Screen. Data for tumor model P388 Leukemia (intraperitoneal) in CD2F1 (CDF1) mice
Conditions: endpoint: median survival time, higher = longer survival
Method in brief: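 Mice carrying the transplanted tumor received test compound or vehicle. Survival was recorded in each group, and the value is the treated-group measurement divided by that of the vehicle-treated control group.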

[1] = dose: 50.0 mg/kg/injection, schedule: Q01DX009 (ip), vehicle: saline with Tween-80
[2] = dose: 100.0 mg/kg/injection, schedule: Q01DX009 (ip), vehicle: saline with Tween-80
[3] = dose: 200.0 mg/kg/injection, schedule: Q01DX009 (ip), vehicle: saline with Tween-80
[4] = dose: 50.0 mg/kg/injection, schedule: Q01DX005 (ip), vehicle: saline with Tween-80
[5] = dose: 100.0 mg/kg/injection, schedule: Q01DX005 (ip), vehicle: saline with Tween-80
[6] = dose: 200.0 mg/kg/injection, schedule: Q01DX005 (ip), vehicle: saline with Tween-80
[7] = dose: 50.0 mg/kg/injection, schedule: Q01DX009 (ip), vehicle: Klucel (hydroxypropylcellulose) (HPC)
[8] = dose: 100.0 mg/kg/injection, schedule: Q01DX009 (ip), vehicle: Klucel (hydroxypropylcellulose) (HPC)
[9] = dose: 200.0 mg/kg/injection, schedule: Q01DX009 (ip), vehicle: Klucel (hydroxypropylcellulose) (HPC)

Measured: T/C

COc1ccc(/C(C#N)=C\c2ccc(N(C)C)cc2)cc1
inactive: dose: 50.0 mg/kg/injection, schedule: Q04DX003 (ip), vehicle: Klucel (hydroxypropylcellulose) (HPC) 108 % of control | dose: 100.0 mg/kg/injection, schedule: Q04DX003 (ip), vehicle: Klucel (hydroxypropylcellulose) (HPC) 105 % of control | dose: 200.0 mg/kg/injection, schedule: Q04DX003 (ip), vehicle: Klucel (hydroxypropylcellulose) (HPC) 106 % of control | dose: 400.0 mg/kg/injection, schedule: Q04DX003 (ip), vehicle: Klucel (hydroxypropylcellulose) (HPC) 105 % of control

COCC1N=C(COCc2ccccc2)OC1c1ccccc1 (stereo unspecified)
inactive: dose: 60.0 mg/kg/injection, schedule: Q01DX005 (ip), vehicle: saline with Tween-80 100 % of control | dose: 120.0 mg/kg/injection, schedule: Q01DX005 (ip), vehicle: saline with Tween-80 95 % of control | dose: 240.0 mg/kg/injection, schedule: Q01DX005 (ip), vehicle: saline with Tween-80 100 % of control

CSc1ccc(NC(=O)ON2CCCCC2)cc1
inactive: [1] 99 % of control | [2] 108 % of control | [3] 101 % of control

CC(C)(O)c1ccccc1[S+]1OC(C)(C)c2ccccc21 (stereo unspecified)
inactive: dose: 100.0 mg/kg/injection, schedule: Q04DX002 (ip), vehicle: saline with Tween-80 109 % of control | dose: 200.0 mg/kg/injection, schedule: Q04DX002 (ip), vehicle: saline with Tween-80 112 % of control | dose: 400.0 mg/kg/injection, schedule: Q04DX002 (ip), vehicle: saline with Tween-80 109 % of control

O=CCCOC1CCCCO1 (stereo unspecified)
inactive: dose: 50.0 mg/kg/injection, schedule: Q01DX009 (ip), vehicle: other 116 % of control | dose: 100.0 mg/kg/injection, schedule: Q01DX009 (ip), vehicle: other 110 % of control | dose: 200.0 mg/kg/injection, schedule: Q01DX009 (ip), vehicle: other 104 % of control

COc1ccc2c(c1)OC(=O)C(S(=O)(=O)c1ccccc1)C2 (stereo unspecified)
inactive: [4] 102 % of control | [5] 96 % of control | [6] 101 % of control

CCOc1ccccc1N=Nc1c(-c2ccccc2)nn(C(=S)S)c1-c1ccccc1
inactive: [4] 107 % of control | [5] 109 % of control | [6] 110 % of control

CCCCCCN(CCCCCC)CC(O)c1cc(-c2ccccc2)nc2cc(Cl)ccc12 (stereo unspecified)
inactive: [4] 115 % of control | [5] 103 % of control | [6] 113 % of control

O=C1c2ccccc2C(=O)N1CN1C(=O)c2ccccc2C1=O
inactive: dose: 25.0 mg/kg/injection, schedule: Q01DX009 (ip), vehicle: saline with Tween-80 95 % of control | [1] 115 % of control and 90 % of control | [2] 90 % of control | [3] 100 % of control

CC(=O)OC1CC2C(C)(C)C(=O)C=CC2(C)C2CCC3(C)C(c4ccoc4)CC(=O)C3C12C (stereo unspecified)
inactive: dose: 0.5 mg/kg/injection, schedule: Q01DX005 (ip), vehicle: Klucel (hydroxypropylcellulose) (HPC) 99 % of control | dose: 1.0 mg/kg/injection, schedule: Q01DX005 (ip), vehicle: Klucel (hydroxypropylcellulose) (HPC) 100 % of control | dose: 2.0 mg/kg/injection, schedule: Q01DX005 (ip), vehicle: Klucel (hydroxypropylcellulose) (HPC) 97 % of control | dose: 4.0 mg/kg/injection, schedule: Q01DX005 (ip), vehicle: Klucel (hydroxypropylcellulose) (HPC) 100 % of control | dose: 8.0 mg/kg/injection, schedule: Q01DX005 (ip), vehicle: Klucel (hydroxypropylcellulose) (HPC) 98 % of control

COc1ccccc1N=NC1=C2Sc3ccccc3N=C1N(c1ccccn1)C(=S)N2c1ccc(Cl)cc1
inactive: dose: 12.5 mg/kg/injection, schedule: Q01DX005 (ip), vehicle: saline with Tween-80 103 % of control | dose: 25.0 mg/kg/injection, schedule: Q01DX005 (ip), vehicle: saline with Tween-80 100 % of control | [4] 110 % of control and 117 % of control

NC(Cc1cccc2ccccc12)C(=O)O (stereo unspecified)
inactive: dose: 12.5 mg/kg/injection, schedule: Q01DX005 (ip), vehicle: Klucel (hydroxypropylcellulose) (HPC) 93 % of control | dose: 25.0 mg/kg/injection, schedule: Q01DX005 (ip), vehicle: Klucel (hydroxypropylcellulose) (HPC) 100 % of control | dose: 50.0 mg/kg/injection, schedule: Q01DX005 (ip), vehicle: Klucel (hydroxypropylcellulose) (HPC) 102 % of control and 110 % of control

N#C/C(=C1/Nc2ccccc2NC1=O)c1ccccc1
inactive: dose: 50.0 mg/kg/injection, schedule: Q01DX009 (ip), vehicle: distilled water + Tween-80 + alcohol 96 % of control | dose: 100.0 mg/kg/injection, schedule: Q01DX009 (ip), vehicle: distilled water + Tween-80 + alcohol 92 % of control

Nc1ccccc1-c1nc2ccncc2[nH]1
inactive: dose: 25.0 mg/kg/injection, schedule: Q01DX009 (ip), vehicle: Klucel (hydroxypropylcellulose) (HPC) 102 % of control | [7] 105 % of control | [8] 101 % of control | [9] 100 % of control

CC(SC(SC(C)C(=O)O)c1ccccc1)C(=O)O (stereo unspecified)
inactive: dose: 100.0 mg/kg/injection, schedule: Q01DX001 (ip), vehicle: other 105 % of control | dose: 200.0 mg/kg/injection, schedule: Q01DX001 (ip), vehicle: other 107 % of control | dose: 400.0 mg/kg/injection, schedule: Q01DX001 (ip), vehicle: other 98 % of control

CCOC(=O)c1ccc(NN=NCCO)cc1
inactive: dose: 12.5 mg/kg/injection, schedule: Q01DX009 (ip), vehicle: distilled water + Tween-80 97 % of control | dose: 25.0 mg/kg/injection, schedule: Q01DX009 (ip), vehicle: distilled water + Tween-80 100 % of control | dose: 50.0 mg/kg/injection, schedule: Q01DX009 (ip), vehicle: distilled water + Tween-80 100 % of control | dose: 100.0 mg/kg/injection, schedule: Q01DX009 (ip), vehicle: distilled water + Tween-80 95 % of control | dose: 200.0 mg/kg/injection, schedule: Q01DX009 (ip), vehicle: distilled water + Tween-80 118 % of control

Nc1n[n+](-c2ccc3ccccc3c2)no1
inactive: dose: 3.13 mg/kg/injection, schedule: Q01DX009 (ip), vehicle: water 98 % of control | dose: 6.25 mg/kg/injection, schedule: Q01DX009 (ip), vehicle: water 109 % of control | dose: 12.5 mg/kg/injection, schedule: Q01DX009 (ip), vehicle: water 120 % of control | dose: 25.0 mg/kg/injection, schedule: Q01DX009 (ip), vehicle: water 120 % of control

O=C(O)c1ccc(Cc2ccc(C(=O)O)cc2)cc1 (tested in a mixture with another compound)
inactive: dose: 50.0 mg/kg/injection, schedule: Q01DX009 (ip), vehicle: saline 95 % of control | dose: 100.0 mg/kg/injection, schedule: Q01DX009 (ip), vehicle: saline 99 % of control | dose: 200.0 mg/kg/injection, schedule: Q01DX009 (ip), vehicle: saline 104 % of control

OC(c1cc2cc(Cl)c(Cl)cc2c2cc(C(F)(F)F)ccc12)C1CCCCN1 (stereo unspecified)
inactive: dose: 6.25 mg/kg/injection, schedule: Q01DX009 (ip), vehicle: saline with Tween-80 109 % of control | dose: 12.5 mg/kg/injection, schedule: Q01DX009 (ip), vehicle: saline with Tween-80 102 % of control

CONC(=O)N/N=C\c1c(CO)cnc(C)c1O
inactive: dose: 7.5 mg/kg/injection, schedule: Q01DX005 (ip), vehicle: Klucel (hydroxypropylcellulose) (HPC) 105 % of control | dose: 15.0 mg/kg/injection, schedule: Q01DX005 (ip), vehicle: Klucel (hydroxypropylcellulose) (HPC) 102 % of control | dose: 30.0 mg/kg/injection, schedule: Q01DX005 (ip), vehicle: Klucel (hydroxypropylcellulose) (HPC) 102 % of control

C=CCN=C([S-])Nc1cccc(C(=O)O)c1.[Au+].[Na+]
inactive: dose: 60.0 mg/kg/injection, schedule: Q01DX005 (ip), vehicle: saline 106 % of control | dose: 120.0 mg/kg/injection, schedule: Q01DX005 (ip), vehicle: saline 106 % of control | dose: 240.0 mg/kg/injection, schedule: Q01DX005 (ip), vehicle: saline 108 % of control

CCOC(=O)C(CC)C1=CCCCC1 (stereo unspecified)
inactive: [1] 109 % of control | [2] 118 % of control | dose: 100.0 mg/kg/injection, schedule: Q04DX003 (ip), vehicle: saline with Tween-80 109 % of control | [3] 118 % of control | dose: 200.0 mg/kg/injection, schedule: Q04DX003 (ip), vehicle: saline with Tween-80 100 % of control | dose: 400.0 mg/kg/injection, schedule: Q04DX003 (ip), vehicle: saline with Tween-80 113 % of control

CSc1nc(C(N)=O)c(N)c(=O)[nH]1
inactive: [7] 109 % of control | [8] 110 % of control | [9] 117 % of control

CCC(C)/C(=C\C#N)NCCN/C(=C/C#N)C(C)CC (stereo unspecified)
inactive: dose: 60.0 mg/kg/injection, schedule: Q01DX005 (ip), vehicle: Klucel (hydroxypropylcellulose) (HPC) 94 % of control | dose: 120.0 mg/kg/injection, schedule: Q01DX005 (ip), vehicle: Klucel (hydroxypropylcellulose) (HPC) 91 % of control | dose: 240.0 mg/kg/injection, schedule: Q01DX005 (ip), vehicle: Klucel (hydroxypropylcellulose) (HPC) 89 % of control
